{"source": "patent US9963480B2", "about": "“Nucleoside phosphoramidate compound and use thereof” (priority 2013, dated 2018)", "key": {"[1]": {"system": "J399EM (HCV genotype 2a) virus", "experiment": "Antiviral activity assay in the cell-culture-derived infectious HCV (HCVcc) system", "format": "cell-based", "experimental": "The compound according to the above example 1 was used in this experiment. The compound was formulated into a 10 mM mother liquid with DMSO, diluted to 500 nM by DMEM complete culture medium containing 0.5% of DMSO, followed by 4-fold dilution successively, and six concentrations were obtained. The positive control was diluted to 10 μM by DMEM complete culture medium containing 0.5% of DMSO, followed by 4-fold successively, and six concentrations were obtained.\n(§1) Huh 7.5.1 cells, provided by Shanghai Institute of Materia Medica, Chinese Academy of Sciences.\nJ399EM (HCV genotype 2a) virus, i.e. a full length HCV mutant strain transfected with EGFP (enhanced green fluorescent protein) was used, which had the same infection capacity as the wild type JFH-1. The NS5A-EGFP fusion protein fluorescence was observed directly in infected cells by inserting EGFP coding sequence in the NS5A region. J399EM was provided by Shanghai Institute of Materia Medica, Chinese Academy of Sciences.\n(§2) • 1) Huh 7.5.1 cells preparation: collecting the Huh7.5.1 cells in logarithmic phase, resuspending in DMEM complete culture medium, seeding into 96-well plates (7×10^3 cells/well), and incubating in a 37° C., 5% CO2 incubator for 24 h; • 2) virus infection: resuspending J399EM viruses in DMEM complete culture medium, adding the virus supernatant (MOI≈0.1) to the above 96-well plates, and washing with PBS after 8 hours of infection; • 3) drug treatment: adding various concentrations of the compounds to the Huh7.5.1 cells infected by J399EM viruses, with each concentration in duplicate; setting the control group with zero percent effect (ZPE) and the control group with hundred percent effect (HPE); replacing the compound with the DMEM complete culture medium containing 0.5% DMSO in ZPE group, and using the cells not infected with viruses in HPE group. • 4) cells incubation: incubating the 96-well plates in a 37° C., 5% CO2 incubator for 72 hr; • 5) anti-HCV activity detection: reading the relative fluorescence units (RFU) of each well by EnVision® Multi label Plate readers after incubation, and calculating the anti-HCV activity of the compounds using the obtained data according to the following formula: Inhibition %=(RFUZPE−RFUCPD)/(RFUZPE−RFUHPE)×100 • wherein RFUZPE represents the relative fluorescence units of the control group with zero percent effect and RFUCPD represents the relative fluorescence units of the corresponding compound group, and RFUHPE represents the relative fluorescence units of the control group with hundred percent effect. • 6) Cell viability detection: adding MTT solution to each well, incubating in a 37° C., 5% CO2 incubator for 4 hr, followed by addition of MTT dissolving solution, reading optical density (OD) of each well at 570 nm by the Multi label Plate readers after 6 hr, calculating the cytotoxicity of the compounds using the obtained data according to the following formula: Viability %=ODCPD/ODZPE×100 • wherein ODZPE represents the optical density of the control group with zero percent effect, and ODCPD represents the optical density of the corresponding compound; • 7) Data processing: processing the Inhibition %, Viability % by GraphPad Prism Software respectively, and obtaining the half maximal effective concentration (EC50) values and half maximal cytotoxic concentration (CC50) values of the compounds against the HVCcc GT2a viruses."}, "[2]": {"experiment": "Pharmacokinetic studies in SD rats: metabolite GS-461203 in liver homogenate", "format": "in vivo", "conditions": "liver tissue, 50 mg/kg intragastric", "experimental": "In this experiment, the compound of Example 1 was used, and the positive control drug was the same as above. Each of the compounds was added to 0.5% sodium carboxymethyl cellulose (CMC), and the mixture was vortexed to prepare a 10 mg/mL suspension for intragastric administration.\nThe standard substance GS-461203 was the metabolite of the tested compounds, and the chemical name was (2′R)-2′-deoxy-2′-fluoro-2′-methyluridinetriphosphate, which was purchased from TriLink BioTechnologies Corporation, USA.\nMale SD rats, 6-8 weeks old, weighing 237.0-268.4 g, provided by Shanghai Super-B&K laboratory animal Co. Limited.\n• 1) administration: dividing SD rats into 4 groups, with 18 rats in each group, intragastrically administering with the compound in an amount of 50 mg/kg. […]"}, "Huh 7.5.1 cells": {"system": "Huh 7.5.1 cells", "experiment": "Cell viability detection (MTT) in the HCVcc system", "format": "cell-based", "conditions": "HCVcc system", "experimental": "as §1, §2"}, "[3]": {"experiment": "Cell viability detection (MTT) in the HCVcc system", "format": "cell-based", "conditions": "human, Huh 7.5.1 cells infected with J399EM virus (HCVcc); Huh 7.5.1 cells, MTT, 72 hr", "experimental": "as §1, §2"}}, "data": [{"smiles": "CC(C)OC(=O)[C@H](C)NP(=O)(OC[C@H]1O[C@@H](n2ccc(=O)[nH]c2=O)[C@](C)(F)[C@@H]1O)Oc1ccc(-c2ccccc2)cc1", "note": "(stereo partly drawn) [Example 1, (2S)-2-((([1,1′-biphenyl]-4-yloxy)(((2R,3R,4R,5R)-5-(2,4-dioxo-3,4-dihydropyrimidin-1(2H)-yl)-4-fluoro-3-hydroxy-4-methyltetrahydrofuran-2-yl)methoxy)phosphoryl)amino)propanoic Acid Isopropyl Ester]", "values": [{"measurement": "antiviral activity compared with the positive control", "setting": "[1]; HCVcc system", "value": "excellent"}, {"measurement": "EC50", "setting": "[1]; Hepatitis C virus, Huh-7.5.1, 72 h", "value": 39, "unit": "nM"}, {"measurement": "in vivo exposure level of the metabolite compared with the positive control", "setting": "[2]", "value": "greater"}, {"measurement": "cell toxicity compared with the positive control", "setting": "Huh 7.5.1 cells", "value": "less"}, {"measurement": "CC50 at 72 h", "setting": "[3]", "value": "> 10", "unit": "µM"}]}]}
